From ChEMBL document CHEMBL1201862, “PubChem BioAssay data set” (2004)
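Assay format: 96-well plates, 48-hour exposure. Here, GI50 denotes the concentration required for 50% inhibition of growth.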 Active and inactive are the calls of the source. Rule as the data show it: active = GI50 up to about 1.1 µM and inactive = higher.

Legend:
Test in all cases: NCI-60 cell line screen, 48 h
A549 = test system: A549
BT-549 = test system: BT-549
SK-MEL-28 = test system: SK-MEL-28
NCI/ADR-RES = test system: NCI/ADR-RES
SR = test system: SR
SF-268 = test system: SF-268
Hs-578T = test system: Hs-578T
A498 = test system: A498
Malme-3M = test system: Malme-3M
HL-60 = test system: HL-60
KM12 = test system: KM12
SF-295 = test system: SF-295
SNB-19 = test system: SNB-19
NCI-H226 = test system: NCI-H226
HOP-62 = test system: HOP-62
RXF 393 = test system: RXF 393
MDA-MB-435 = test system: MDA-MB-435
LOX IMVI = test system: LOX IMVI
NCI-H522 = test system: NCI-H522

`CC(C)N(c1cc2c(cc1F)c(=O)c(C(=O)O)cn2-c1ccc(N2CCN(C)CC2)cn1)C(C)C` was tested, and the GI50 (A549) was > 100 µM (inactive), the GI50 (BT-549) was 86.7 µM (inactive) and the GI50 (SK-MEL-28) was > 100 µM (inactive). The GI50 (NCI/ADR-RES) was > 100 µM (inactive), the GI50 (SR) was > 100 µM (inactive) and the GI50 (SF-268) was > 100 µM (inactive). For the same compound, the GI50 (Hs-578T) was > 100 µM (inactive), the GI50 (A498) was > 100 µM (inactive) and the GI50 (Malme-3M) was > 100 µM (inactive). For the same compound, the GI50 (HL-60) was > 100 µM (inactive), the GI50 (KM12) was > 100 µM (inactive) and the GI50 (SF-295) was > 100 µM (inactive). For the same compound, the GI50 (SNB-19) was > 100 µM (inactive), the GI50 (NCI-H226) was > 100 µM (inactive) and the GI50 (HOP-62) was > 100 µM (inactive). For the same compound, the GI50 (RXF 393) was > 100 µM (inactive), the GI50 (MDA-MB-435) was > 100 µM (inactive) and the GI50 (LOX IMVI) was > 100 µM (inactive).
In the case of `Nc1nc(Cl)cc(NCC2(O)CCC2)n1`, the GI50 (NCI-H522) is reported as > 100 µM (inactive), the GI50 (A549) is reported as > 100 µM (inactive) and the GI50 (BT-549) is reported as > 100 µM (inactive). The GI50 (SK-MEL-28) was > 100 µM (inactive), the GI50 (NCI/ADR-RES) was > 100 µM (inactive) and the GI50 (SR) was > 100 µM (inactive). For the same compound, the GI50 (SF-268) was > 100 µM (inactive), the GI50 (Hs-578T) was > 100 µM (inactive) and the GI50 (A498) was > 100 µM (inactive). The GI50 (Malme-3M) was > 100 µM (inactive), the GI50 (HL-60) was > 100 µM (inactive) and the GI50 (KM12) was > 100 µM (inactive). For the same compound, the GI50 (SF-295) was > 100 µM (inactive), the GI50 (NCI-H226) was > 100 µM (inactive) and the GI50 (HOP-62) was > 100 µM (inactive). For the same compound, the GI50 (RXF 393) was > 100 µM (inactive), the GI50 (MDA-MB-435) was > 100 µM (inactive) and the GI50 (LOX IMVI) was > 100 µM (inactive).
In the case of `COc1cc(Br)c(OC)c2c(OC)cc(C)cc12`, the GI50 (NCI-H522) is reported as > 100 µM (inactive), the GI50 (BT-549) is reported as 96.6 µM (inactive) and the GI50 (SK-MEL-28) is reported as > 100 µM (inactive). The GI50 (NCI/ADR-RES) was > 100 µM (inactive), the GI50 (SR) was 0.731 µM (active) and the GI50 (SF-268) was > 100 µM (inactive). For the same compound, the GI50 (Hs-578T) was 52 µM (inactive), the GI50 (A498) was > 100 µM (inactive) and the GI50 (Malme-3M) was > 100 µM (inactive). The GI50 (HL-60) was 14.7 µM (inactive), the GI50 (KM12) was > 100 µM (inactive) and the GI50 (SF-295) was > 100 µM (inactive). For the same compound, the GI50 (SNB-19) was > 100 µM (inactive), the GI50 (NCI-H226) was > 100 µM (inactive) and the GI50 (HOP-62) was > 100 µM (inactive). For the same compound, the GI50 (RXF 393) was 50.1 µM (inactive), the GI50 (MDA-MB-435) was 70.6 µM (inactive) and the GI50 (LOX IMVI) was > 100 µM (inactive).
For `O=[N+]([O-])c1cc(Cl)ccc1S(=O)(=O)c1cc(Cl)cc2c1NCCC2`, the GI50 (A549) was 52 µM (inactive), the GI50 (BT-549) was 56.9 µM (inactive) and the GI50 (SK-MEL-28) was 35.8 µM (inactive). For the same compound, the GI50 (NCI/ADR-RES) was 71.4 µM (inactive), the GI50 (SR) was 53.5 µM (inactive) and the GI50 (SF-268) was 82.4 µM (inactive). For the same compound, the GI50 (Hs-578T) was 95.1 µM (inactive), the GI50 (A498) was > 100 µM (inactive) and the GI50 (Malme-3M) was > 100 µM (inactive). The GI50 (HL-60) was 98.4 µM (inactive), the GI50 (KM12) was 52.7 µM (inactive) and the GI50 (SF-295) was 36.7 µM (inactive). The GI50 (SNB-19) was > 100 µM (inactive), the GI50 (NCI-H226) was 39.3 µM (inactive) and the GI50 (HOP-62) was 69.2 µM (inactive). The GI50 (RXF 393) was 41.4 µM (inactive), the GI50 (MDA-MB-435) was 39.6 µM (inactive) and the GI50 (LOX IMVI) was 58.5 µM (inactive).
For `Nc1nc(NCCCO)cc(=O)[nH]1`, the GI50 (NCI-H522) was > 100 µM (inactive), the GI50 (A549) was > 100 µM (inactive) and the GI50 (BT-549) was > 100 µM (inactive). For the same compound, the GI50 (SK-MEL-28) was > 100 µM (inactive), the GI50 (NCI/ADR-RES) was > 100 µM (inactive) and the GI50 (SR) was > 100 µM (inactive). For the same compound, the GI50 (SF-268) was > 100 µM (inactive), the GI50 (Hs-578T) was > 100 µM (inactive) and the GI50 (A498) was > 100 µM (inactive). For the same compound, the GI50 (Malme-3M) was > 100 µM (inactive), the GI50 (HL-60) was > 100 µM (inactive) and the GI50 (KM12) was > 100 µM (inactive). For the same compound, the GI50 (SF-295) was > 100 µM (inactive), the GI50 (SNB-19) was > 100 µM (inactive) and the GI50 (NCI-H226) was > 100 µM (inactive). For the same compound, the GI50 (HOP-62) was > 100 µM (inactive), the GI50 (RXF 393) was > 100 µM (inactive) and the GI50 (MDA-MB-435) was > 100 µM (inactive). The GI50 (LOX IMVI) was > 100 µM (inactive).
`COc1ccc(Br)c(/C=N\c2cccc3cc(OC)c(OC)cc23)c1` was tested, and the GI50 (NCI-H522) was > 61.1 µM (inactive), the GI50 (A549) was > 91.2 µM (inactive) and the GI50 (BT-549) was 8.3 µM (inactive). For the same compound, the GI50 (SK-MEL-28) was 13.3 µM (inactive), the GI50 (NCI/ADR-RES) was 16.8 µM (inactive) and the GI50 (SR) was 2.42 µM (inactive). The GI50 (SF-268) was 7 µM (inactive), the GI50 (Hs-578T) was 5.21 µM (inactive) and the GI50 (A498) was > 78.5 µM (inactive). For the same compound, the GI50 (Malme-3M) was 34 µM (inactive), the GI50 (HL-60) was 0.865 µM (active) and the GI50 (KM12) was 21.1 µM (inactive). The GI50 (SF-295) was 12.8 µM (inactive), the GI50 (SNB-19) was 13.2 µM (inactive) and the GI50 (NCI-H226) was 39 µM (inactive). For the same compound, the GI50 (HOP-62) was 9.64 µM (inactive), the GI50 (RXF 393) was 39.1 µM (inactive) and the GI50 (MDA-MB-435) was 2.8 µM (inactive). The GI50 (LOX IMVI) was 4.57 µM (inactive).
In the case of `CN(C)CCCNCc1cccc2ccccc12`, the GI50 (A549) is reported as > 100 µM (inactive), the GI50 (BT-549) is reported as > 100 µM (inactive) and the GI50 (SK-MEL-28) is reported as > 100 µM (inactive). The GI50 (NCI/ADR-RES) was > 100 µM (inactive), the GI50 (SR) was 25.6 µM (inactive) and the GI50 (SF-268) was > 100 µM (inactive). For the same compound, the GI50 (Hs-578T) was > 100 µM (inactive), the GI50 (A498) was > 100 µM (inactive) and the GI50 (Malme-3M) was > 100 µM (inactive). The GI50 (HL-60) was > 100 µM (inactive), the GI50 (KM12) was > 100 µM (inactive) and the GI50 (SF-295) was > 100 µM (inactive). For the same compound, the GI50 (SNB-19) was > 100 µM (inactive), the GI50 (NCI-H226) was > 100 µM (inactive) and the GI50 (HOP-62) was > 100 µM (inactive). For the same compound, the GI50 (RXF 393) was > 100 µM (inactive), the GI50 (MDA-MB-435) was > 100 µM (inactive) and the GI50 (LOX IMVI) was > 100 µM (inactive).
With `CC(/C=C/C(=O)NO)=C\C(C)C(=O)c1ccc(N(C)C)cc1` (configuration not stated) the GI50 (NCI-H522) was < 0.01 µM (active), the GI50 (A549) was < 0.0122 µM (active) and the GI50 (BT-549) was 0.424 µM (active). The GI50 (SK-MEL-28) was 0.479 µM (active), the GI50 (NCI/ADR-RES) was < 0.01 µM (active) and the GI50 (SR) was < 0.0112 µM (active). The GI50 (SF-268) was 0.0309 µM (active), the GI50 (Hs-578T) was < 0.01 µM (active) and the GI50 (A498) was 0.0841 µM (active). The GI50 (Malme-3M) was < 0.01 µM (active), the GI50 (HL-60) was 0.207 µM (active) and the GI50 (KM12) was 0.0256 µM (active). For the same compound, the GI50 (SF-295) was 0.0951 µM (active), the GI50 (SNB-19) was 0.0281 µM (active) and the GI50 (NCI-H226) was 0.188 µM (active). For the same compound, the GI50 (HOP-62) was 0.0391 µM (active), the GI50 (RXF 393) was 0.0251 µM (active) and the GI50 (MDA-MB-435) was 0.0159 µM (active). For the same compound, the GI50 (LOX IMVI) was < 0.01 µM (active).
